The numbers were not newly measured in patent US20100099894A1, “Method for the Synthesis of Cyclic Acetals by the Reactive Extraction of a Polyol in a Concentrated Solution” (priority 2006, published 2010), which cites them from elsewhere.

For the first series the following is noted: aqueous solution, at room temperature; data from Yaw's Handbook.
Regarding `CC(C)CC(=O)CC(C)C` [diisobutyl ketone], the solubility in water is recorded as 2640 mg/kg.

`CC(=O)c1ccccc1` [acetophenone]: the solubility in water is on record as 6842 mg/kg.

For the compound `O=Cc1ccccc1` [benzaldehyde], the solubility in water is on record as 6570 mg/kg.

As for `CCCCC=O` [pentanal], the solubility in water is 11700 mg/kg.

Regarding `CCCCCCCC=O` [n-octanal], the solubility in water is on record as 370 mg/kg.

In the case of `CC(C)C(=O)C(C)C` [diisopropyl ketone], the solubility in water is listed as 5700 mg/kg.

As to `CCCCCCC=O` [n-heptanal], the solubility in water is reported as 1516 mg/kg.

Still in this series, the particulars now being: background description of Solketal.
Regarding `CC1(C)OCC(CO)O1` (centres unmarked) [Solketal], the miscibility in water entry is reported as “miscible in water”.
